PubChem BioAssay (NCI)
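Where inhibition never reached the appropriate level, the endpoint shown equals the highest concentration tested. Otherwise, values were interpolated linearly from a five-concentration, 48-hour dose response in 96-well plates. Here, GI50 denotes the concentration required for 50% inhibition of growth. The concentration for full growth arrest is given as TGI.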

Experiments:
Assay in all cases: NCI anticancer screen, dose series, 48 h
DLD-1 colon = test system: DLD-1 colon
K-562 leukemia = test system: K-562 leukemia
MOLT-4 leukemia = test system: MOLT-4 leukemia
NCI-H522 lung = test system: NCI-H522 lung
SF-539 CNS = test system: SF-539 CNS
SN12C renal = test system: SN12C renal
SNB-78 CNS = test system: SNB-78 CNS
UO-31 renal = test system: UO-31 renal
DU-145 prostate = test system: DU-145 prostate
MDA-MB-435 = test system: MDA-MB-435

Structure (SMILES)	TGI (DLD-1 colon) [µM]	TGI (K-562 leukemia) [µM]	TGI (MOLT-4 leukemia) [µM]	TGI (NCI-H522 lung) [µM]	TGI (SF-539 CNS) [µM]	TGI (SN12C renal) [µM]	TGI (SNB-78 CNS) [µM]	TGI (UO-31 renal) [µM]	GI50 (DLD-1 colon) [µM]	GI50 (K-562 leukemia) [µM]	GI50 (MOLT-4 leukemia) [µM]	GI50 (NCI-H522 lung) [µM]	GI50 (SF-539 CNS) [µM]	GI50 (SN12C renal) [µM]	GI50 (UO-31 renal) [µM]	GI50 (DU-145 prostate) [µM]	TGI (DU-145 prostate) [µM]	GI50 (MDA-MB-435) [µM]	TGI (MDA-MB-435) [µM]
COc1cc(OC)c2ssc3c(OC)cc(OC)c4ssc1c2-c43	> 100	> 100	> 100	> 100	> 100	> 100	> 100												
CC(C)N(C(=O)C1(C)CC1)C(C)C	> 100	> 100	> 100	> 100	> 100	> 100	> 100	> 100											
COc1ccc2c(c1O)C(=O)C(CCC(=O)O)CC2 (configuration not stated)	> 100		> 100		> 100	> 100	> 100												
CCSC(SCC)c1cc2c(cc1Br)OCO2	> 100	32.7	42.2	> 100	35.5	> 100	> 100	85.3											
C=CCCOC(=O)CO[N+](=O)[O-]	> 100	> 100	> 100	> 100	> 100	> 100		> 100											
C=CCCCn1ccc2ccccc21	> 100	> 100	> 100	> 100	> 100	> 100		> 100											
COc1ccc(/C=C/C(=O)C(C)(C)CN2CCCCC2)cc1	36.4	65.2	47.9	30	38.1	44.1	69	41.3											
Cc1c(-c2ccccc2)c(=O)oc2ccc(Cl)cc12	> 100	> 100	> 100	> 100	> 100	> 100	> 100	> 100											
CCCCCCCCCCCCCCCCOCC(CN(C)CCN(C)C)OCCCCCCCCCCCCCCCC (configuration not stated)	> 100	> 100	> 100	> 100		> 100	> 100	> 100											
COc1cc(Br)c(CC2(C#N)c3ccccc3C3C(N2C(=O)c2ccccc2)C3(Cl)Cl)cc1OC (configuration not stated)	> 65.5	> 65.5		> 65.5	> 65.5	> 65.5	> 65.5	> 65.5											
CCOC(=O)Cc1nc2ccccc2s1	33.5	71.9	65.9	41.1	36.6	30.5	33	29.7											
O=C(O)C1=C(C(=O)Nc2ccccc2)C2C=CC1C2 (configuration not stated)	> 100	> 100	> 100		> 100	> 100	> 100	> 100											
C#Cc1c(C)c(/C=C/C(C)=C/C=C/C(C)=C/C(=O)OC)n(C)c1C	> 100	> 100	> 100	> 100	> 100		> 100	> 100											
O=C1OC(c2ccccc2)=N/C1=C\c1ccc2ccccc2c1	> 100	> 100	> 100	> 100	> 100	> 100	> 100	> 100											
COCc1c(CO)cnc(C)c1OC1OC(CO)C(O)C(O)C1O (configuration not stated)	> 100	> 100	> 100	> 100	> 100	> 100		> 100											
N.N.N.N.O=NN1CCCCCC1(P(=O)([O-])[O-])P(=O)([O-])[O-].[Pt+4].[Pt+4]	> 100	> 100	> 100	> 100	> 100	> 100		> 100	> 100	> 100	> 100	> 100	> 100	> 100	> 100				
CC(/C=C/C(=O)c1sc(-n2nc(-c3ccccc3)cc2-c2ccccc2)nc1C)=C\c1ccccc1	> 100	> 100	> 100	> 100	> 100	> 100		> 100											
Cc1nnc(N=Nc2c(O)[nH]c3c(Cl)cc(Cl)cc23)n1N	> 100	> 100	> 100	> 100	> 100	> 100	> 100	> 100											
CCN(CC)c1ccc(C2CC(c3cc(OC)c(OC)c(OC)c3)=NN2)cc1 (configuration not stated)		> 37.6	8.14	5.18	2.18	> 100		> 100		0.336	1.56	0.295	0.29	0.737	1.5	0.305	1.49	0.404	> 100
Nc1ccccc1SC(CC(=O)c1ccccc1)c1ccc([N+](=O)[O-])cc1 (configuration not stated)		14.8	60.1	27	31.1	23.8		21.5		3.91	13.5	12.9	17.2	11.6	7.75	13.9	27.2	14.3	28
CC(C)CCSC1=CC(=O)c2ccccc2C1=O		1.2	0.611	6.38	22.7	25.8		4.18		0.313	0.228	1.6	5.74	12.9	0.627	12.1	25.8	3.88	13.8

Structure (SMILES)	TGI (DLD-1 colon) [µM]	TGI (K-562 leukemia) [µM]	TGI (MOLT-4 leukemia) [µM]	TGI (NCI-H522 lung) [µM]	TGI (SF-539 CNS) [µM]	TGI (SN12C renal) [µM]	TGI (SNB-78 CNS) [µM]	TGI (UO-31 renal) [µM]	GI50 (DLD-1 colon) [µM]	GI50 (K-562 leukemia) [µM]	GI50 (MOLT-4 leukemia) [µM]	GI50 (NCI-H522 lung) [µM]	GI50 (SF-539 CNS) [µM]	GI50 (SN12C renal) [µM]	GI50 (UO-31 renal) [µM]	GI50 (DU-145 prostate) [µM]	TGI (DU-145 prostate) [µM]	GI50 (MDA-MB-435) [µM]	TGI (MDA-MB-435) [µM]
O=C1Nc2cc(Cl)ccc2N=CC1NC(=O)C(c1ccccc1)c1ccccc1Cl (configuration not stated)	> 100	> 100	> 100	> 100	> 100	> 100	> 100	> 100											
COc1cc2c3c(c4ccc(OC)c(OC)c4c2cc1OC)CN1CCC[C@@H]1C3		> 100	0.252	0.792	0.425	18		0.291									2.9		5.83
Cc1ccc(-n2c3nc(=O)n(C)c(=O)c-3nc3ccccc32)cc1	> 100	53.7	41.2	32.6	> 100	34	> 100	> 100											
CNC(=O)c1c(NC(=O)c2ccc(C(F)(F)F)cc2)sc2c1CCC(=O)C2			4.01	1.92	1.72	24.1		1.4		0.193	0.47	0.251	0.386	0.69	0.302	4.18	> 100	0.818	3.55
CCNCCC1(CC)C(=O)NC(=O)NC1=O		> 100	> 100	> 100	> 100	> 100		> 100									> 100		> 100
C[N+](C)(C)CC(=O)N/N=C(\CCC(=O)NCCc1ccccc1)CC(=O)c1ccccc1	> 100	> 100	> 100	> 100	> 100	> 100	> 100	> 100											
COc1cccc(Cn2c(-c3nonc3N)nc3ccccc32)c1		> 100	> 100	0.688	0.696	> 100		> 100		0.355	0.632	0.245	0.237	0.751	0.632	0.591	> 100	0.201	0.549
CN[C@@H](C)C(=O)N[C@H]1CN(C(=O)CC(C)C)CC[C@H]2CC[C@@H](C(=O)NC(c3ccccc3)c3ccccc3)N2C1=O		> 100	> 100	> 78.9	> 100	> 100		> 100		97.9	> 86.7	17.6	1.78	> 100	> 100	> 100	> 100	> 100	> 100
COC(=O)[C@H]1C(=O)[C@@]2(C)[C@H]([C@H](OC(=O)c3ccccc3)[C@]3(O)C[C@H](OC(=O)[C@H](O)[C@@H](NC(=O)c4ccc(F)cc4)c4ccccc4)C(C)=C1C3(C)C)[C@]1(OC(C)=O)CO[C@@H]1C[C@@H]2O			3.42	> 7.4	0.0753	> 25		> 25		0.00917	0.0101	0.0135	0.00749	0.0104	1.89	0.00708	0.023	0.0025	0.00604
C#CCSc1n[nH]c(-c2ccco2)n1		> 100	> 100	> 100	> 100	> 100		32									> 100		> 100
COC(=O)[C@@]1(Cc2ccccc2)[C@H]2c3cc(C(=O)N4CCCC4)n(Cc4ccc(OC)c(OC)c4)c3C[C@H]2CN1C(=O)c1ccccc1		37.3	32.8	19.6	18.1	24.8		17.3		9.27	7.94	8.73	9.73	9.96	8.5	15	> 50	11.7	32.8
CC1CN(c2ccc(Cl)cc2)CC(C)(C)OC(=O)O1 (configuration not stated)	> 100	> 100		> 100	> 100	> 100	> 100	> 100											
COc1c2c3ccccc3nc-2n(C)c2ccccc12		> 100	> 100	> 100	25.9	35.9		> 100		11.5	4.7	49.2	8.83	7.27	29.1	9.48	45.5	13.9	38.3
COc1ccc(-c2nsc3c2NC(=O)CC3c2ccc(F)cc2)cc1 (configuration not stated)		> 100	> 100	15.6	67.8	> 100		> 100		1.37	0.577	2.52	3.56	> 23.4	4.59	5.31	> 100	0.513	2.43
C[C@@H](N)C1CCC(C(=O)Nc2ccncc2)CC1 (some centres not stated)		> 100	> 100	> 100	> 100	> 100		> 100		> 100	> 100	> 100	> 100	> 100	> 34.1	> 100	> 100	> 100	> 100
Fc1ccc(-c2nn3c(CNc4ccccc4)nnc3s2)cc1		> 100	> 100	> 100	> 100	90.8		> 100		41.6	27	34.5	33.6	22.7	42.8	56.6	> 100	18.7	51.6
CO/[N+]([O-])=C\C(=O)N/C=C/C(=O)O		> 100	> 100	> 100	> 100	> 100		> 100									> 100		> 100
CSc1nc(NC2OCC(OC(C)=O)C(OC(C)=O)C2OC(C)=O)c(N=C(C)C(C)=O)c(=O)n1C (configuration not stated)	> 100	> 100	> 100		> 100	> 100	> 100	> 100											
C=CC(=O)N1C/C(=C\c2ccccc2)C(=O)/C(=C/c2ccccc2)C1	1.15	4.04	4.5	3.49	3.69	3.44		3.43		0.174	0.562	0.348					15.9	0.27	2.1
N=C(N)/N=C(\N)c1c(-c2cc(O)ccc2O)nc2sccn12		> 100	> 100	> 100	38.4	39.7		47.9		33	29.4	32.4	20.4	19.4	22.3	16.8	30.5	18	35.3
